Test results published in PubChem BioAssay (NCI).
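Growth conditions: 96-well plates. Treatment: test compound, 48 hours, 5 concentrations. Analysis: linear interpolation between bracketing concentrations; unreached endpoints set to highest concentration. GI50 marks 50% less growth. At the TGI there is no net growth.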

Key:
Assay in all cases: NCI-60 cell line screen, 48 h
U251 CNS = system: U251 CNS
LOX IMVI melanoma = system: LOX IMVI melanoma
OVCAR-3 ovarian = system: OVCAR-3 ovarian
HT29 colon = system: HT29 colon
UO-31 renal = system: UO-31 renal
DU-145 prostate = system: DU-145 prostate
HCT-116 colon = system: HCT-116 colon
UACC-62 melanoma = system: UACC-62 melanoma

SMILES	TGI (U251 CNS)	TGI (LOX IMVI melanoma)	TGI (OVCAR-3 ovarian)	TGI (HT29 colon)	TGI (UO-31 renal)	TGI (DU-145 prostate)	TGI (HCT-116 colon)	GI50 (OVCAR-3 ovarian)	GI50 (HT29 colon)	GI50 (UO-31 renal)	GI50 (DU-145 prostate)	TGI (UACC-62 melanoma)
COc1ccc(/C=C/C(=O)c2cc(CN(C)C)c(O)c(CN(C)C)c2)cc1	> 100 µM	31.9 µM	56 µM	> 100 µM	86.9 µM	> 100 µM	> 100 µM	–	–	–	–	–
COc1cccc(C2C(C#N)=C(N)Oc3cc(OCCCCCC[P+](c4ccccc4)(c4ccccc4)c4ccccc4)ccc32)c1 (configuration not stated)	–	–	1.37 µM	3.67 µM	4.69 µM	2.21 µM	–	382 nM	613 nM	1910 nM	950 nM	–
COC1(C)CCC(OS(C)(=O)=O)CO1 (configuration not stated)	> 100 µM	> 100 µM	> 100 µM	> 100 µM	> 100 µM	> 100 µM	> 100 µM	–	–	–	–	> 100 µM
C[C@@H]([C@H]1CC[C@@]2(C)[C@@H]3CC[C@@H]4C(=CC3=CC[C@]12C)CC[C@H](N(C)C)C4(C)C)N(C)C	> 100 µM	> 100 µM	> 100 µM	> 100 µM	–	> 100 µM	> 100 µM	–	–	–	–	> 100 µM
CCC1OC2(C)CC(C#N)(C#N)C1(C#N)C(=N)O2 (configuration not stated)	> 100 µM	> 100 µM	> 100 µM	–	> 100 µM	> 100 µM	> 100 µM	–	–	–	–	> 100 µM
CN(C)Cc1cc(/C=C/C(=O)c2ccc(Br)cc2)cc(CN(C)C)c1O	–	–	71.4 µM	62.4 µM	23.2 µM	33.7 µM	29 µM	–	–	–	–	39.1 µM
COc1c(NC(C)=O)c2ccccc2c2ccccc12	> 100 µM	> 100 µM	> 100 µM	> 100 µM	> 100 µM	> 100 µM	> 100 µM	–	–	–	–	> 100 µM
COc1ccc(-c2nc(-c3cnccn3)n(C/C=C/c3ccccc3)n2)cc1	> 100 µM	> 100 µM	> 100 µM	> 100 µM	> 100 µM	> 100 µM	> 100 µM	–	–	–	–	> 100 µM
C=CC(C)(C)/C(=C\CO[Si](C(C)C)(C(C)C)C(C)C)C(=O)N(C)c1ccccc1I	25 µM	27.4 µM	26.2 µM	27.1 µM	25.9 µM	29.4 µM	17 µM	–	–	–	–	28.7 µM
O=C(NC1=C(Cl)C(=O)c2ccccc2C1=O)C(=O)c1c(O)c2ccccc2oc1=O	20.9 µM	> 45.9 µM	6.79 µM	12.8 µM	21.1 µM	2.93 µM	7.47 µM	–	–	–	–	4.58 µM
Oc1ccc(Nc2nc(Cl)c3[nH]cnc3n2)cc1	> 100 µM	> 100 µM	> 100 µM	> 100 µM	> 100 µM	> 100 µM	> 100 µM	–	–	–	–	> 100 µM
Oc1c(NCn2nc(CCCCCCCCc3nn(CNc4ccc5ccccc5c4O)c(=S)o3)oc2=S)ccc2ccccc12	> 100 µM	–	–	> 100 µM	> 100 µM	> 100 µM	50.4 µM	–	–	–	–	> 100 µM
COc1ccc(Cn2c(=O)c(OS(=O)(=O)C(F)(F)F)c(C)c3cc4ccccc4cc32)cc1	> 100 µM	> 100 µM	> 100 µM	> 100 µM	> 100 µM	> 100 µM	> 100 µM	–	–	–	–	> 100 µM
